Drawing on ChEMBL document CHEMBL2384989, “Abietane diterpenoids and a sesquiterpene pyridine alkaloid from Euonymus lutchuensis” (J Nat Prod, 2013), this text covers IC50 for seven compounds.

Converted amounts (≈) assume the structure as drawn.

Common to all, as to format: functional, cell-based
One experiment relates to P388. Briefly: Cytotoxicity against mouse P388 cells after 48 hrs by MTT assay. The conditions noted are these: P388, 48 h.
Another experiment has as its system HCT-116. The experiment is described as follows: Cytotoxicity against human HCT116 cells after 48 hrs by MTT assay. The conditions noted are these: HCT-116, 48 h.
Another experiment deals with HL-60. The experiment is described as follows: Cytotoxicity against human HL60 cells after 48 hrs by MTT assay. To be noted: HL-60, 48 h. On the technique in general: Tetrazolium assays rely on reduction of a dye to a coloured formazan, in cell work by metabolically active cells.

In general, IC50 refers to the midpoint of a concentration-inhibition curve. Consider `CC(O)c1ccc2c(c1)CC[C@H]1C(C)(C)C(=O)CC[C@]21C` (stereo partly specified), for which the IC50 with P388, with HCT-116 and with HL-60 was above 5 µg/mL throughout.

As to `CC(CO)c1ccc2c(c1)CC[C@H]1C(C)(C)C(=O)CC[C@]21C` (stereo partly specified), the IC50 in the experiment with P388, with HCT-116 and in the experiment with HL-60 was above 5 µg/mL throughout.

Regarding `CC(C)c1cc2c(cc1O)C[C@@]13CCCC(C)(C)[C@@H]1C[C@@H]2O3`, the IC50 in the experiment with P388, in the experiment with HCT-116 and with HL-60 was above 5 µg/mL throughout.

Take `CC(CO)c1cc2c(cc1O)[C@@]1(C)CCC(=O)C(C)(C)[C@@H]1CC2` (stereo partly specified): the IC50 in the experiment with P388 (read-out: IC50), in the experiment with HCT-116 (read-out: IC50) and in the experiment with HL-60 (read-out: IC50) was below 5 µg/mL each time.

In the case of `CC(CO)c1ccc2c(c1)CC[C@H]1C(C)(C)[C@@H](O)C(=O)C[C@]21C` (stereo partly specified), the IC50 in the experiment on P388, in the experiment with HCT-116 and in the experiment with HL-60 was above 5 µg/mL each time.

For `CC(=O)O[C@H]1C(=O)[C@@]2(C)[C@H]([C@H](OC(=O)c3ccccc3)[C@]3(O)C[C@H](OC(=O)[C@H](O)[C@@H](NC(=O)c4ccccc4)c4ccccc4)C(C)=C1C3(C)C)[C@]1(OC(C)=O)CO[C@@H]1C[C@@H]2O` [PACLITAXEL], the IC50 in the experiment on P388 (read-out: IC50) was found to be 0.2 µg/mL (≈ 0.234 µM); with HCT-116 (read-out: IC50), 0.045 µg/mL (≈ 0.0527 µM); in the experiment with HL-60 (read-out: IC50) it was 0.005 µg/mL (≈ 0.00586 µM).

Consider `CC(=O)OC[C@]12[C@H](OC(C)=O)[C@H](OC(C)=O)[C@@H]3[C@@H](O)[C@@]14OC3(C)COC(=O)c1cccnc1[C@H](C)[C@@H](C)C(=O)O[C@H]([C@H](O)[C@@H]2OC(=O)c1ccccc1)C4(C)O` (stereo partly specified) [EUOLUCHUMINE], for which the IC50 in the experiment on P388, in the experiment with HCT-116 and in the experiment with HL-60 was above 5 µg/mL each time.
